Experimental data published in PMC4249827, “A Novel CMKLR1 Small Molecule Antagonist Suppresses CNS Autoimmune Inflammatory Disease” (PLoS ONE, 2014).
Counter-ions that a name gives are not always drawn.

What was measured:
[1] = literature statement; cited from earlier work
huCMKLR1 [2] = biological target: T1, huCMKLR1 (Homo sapiens, UniProt Q99788); test: β-arrestin2 (β-ARR2) enzymatic complementation assay, CMKLR1/CHO cells; type: cell-based; design: host or cells: CHO; details: for IC50: mean±SEM, n = 3-14 independent experiments, read-out: IC50 (µM), β-arrestin, huCMKLR1
T1 sequence (Q99788 1-373): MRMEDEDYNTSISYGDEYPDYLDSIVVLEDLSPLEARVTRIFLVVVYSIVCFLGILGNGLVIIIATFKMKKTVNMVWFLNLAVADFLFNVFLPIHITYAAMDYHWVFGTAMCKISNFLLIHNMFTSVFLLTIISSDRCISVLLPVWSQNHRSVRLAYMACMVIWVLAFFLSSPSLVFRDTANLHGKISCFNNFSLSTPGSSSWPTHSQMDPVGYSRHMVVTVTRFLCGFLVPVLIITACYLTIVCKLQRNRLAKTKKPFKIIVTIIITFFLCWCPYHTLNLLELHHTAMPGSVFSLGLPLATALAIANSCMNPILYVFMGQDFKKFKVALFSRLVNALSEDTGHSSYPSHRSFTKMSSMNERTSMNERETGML
Source text: The engagement of a chemoattractant receptor by its cognate ligand stimulates the recruitment of β-arrestin to the carboxyl-terminus of the receptor, an event that results in receptor internalization and termination of G protein-mediated signaling. […] To test this, we used an enzymatic complementation assay (the β-ARR2 assay), whereby the complementary fragments from the β-gal active site are fused to the carboxyl-terminus of CMKLR1 and β-arrestin2. The special association of these molecules leads to enzyme activity, which is detected by a chemiluminescent substrate.

mCMKLR1 = biological target: T2, mCMKLR1 (Mus musculus, UniProt P97468); test: Transwell chemotaxis of mCMKLR1/L1.2 transfectants to chemerin
T2 sequence (P97468 1-371): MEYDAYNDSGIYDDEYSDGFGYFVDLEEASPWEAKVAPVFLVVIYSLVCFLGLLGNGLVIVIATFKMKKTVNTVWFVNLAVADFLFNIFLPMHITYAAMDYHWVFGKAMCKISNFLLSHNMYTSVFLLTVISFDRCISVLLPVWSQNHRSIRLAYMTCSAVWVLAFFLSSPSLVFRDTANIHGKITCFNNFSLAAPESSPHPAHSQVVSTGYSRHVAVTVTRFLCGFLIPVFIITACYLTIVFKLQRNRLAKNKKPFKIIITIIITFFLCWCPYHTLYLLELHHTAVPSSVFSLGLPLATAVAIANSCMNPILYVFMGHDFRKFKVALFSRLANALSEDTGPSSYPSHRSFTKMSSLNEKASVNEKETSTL

huCMKLR1 [3] = biological target: T1, huCMKLR1; test: Transwell chemotaxis of huCMKLR1/L1.2 transfectants to chemerin
[4] = system: Choline acetyltransferase; details: cited from earlier work

IC50 (huCMKLR1 [2]) [µM] | inhibitory activity in the in vitro assays (huCMKLR1 [2]; β-ARR2 and transwell migration assays) | IC50 (mCMKLR1) [µM] | IC50 (huCMKLR1 [3]) [µM] | fold less potent than α-NETA (huCMKLR1 [2]; chemerin-stimulated β-ARR2 association with CMKLR1 or CMKLR1+ cell migration) | Structure (SMILES) | bound by serum proteins [1] [%] | fold less potent than α-NETA in inhibiting ChAT enzyme activity [4] [fold]
– | – | – | – | – | COC(=O)/C=C/C(=O)O [monomethyl fumarate] | 30 | –
> 10 | no inhibitory activity | > 100 | > 100 | – | c1ccc2ccccc2c1 [naphthalene, reference compound] | – | –
7.5 ± 0.74 | – | 78 ± 22 | 77 ± 23 | 10–20 fold | CN(C)CCC(=O)c1cccc2ccccc12 [α-NEDA, 2-(α-naphthoyl)ethyldimethylamine] | – | 7
